Measurements reported in ChEMBL document CHEMBL1201862, “PubChem BioAssay data set” (2004).
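Five concentrations, 48 hours, 96-well plates. Abbreviation: GI50, concentration required for 50% inhibition of growth.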 The source made the active and inactive calls. No stated cut-off is given here; in the data, active = GI50 up to about 1.1 µM and inactive = higher.

What was measured:
Assay in all cases: NCI tumour cell line growth inhibition, 48 h
SK-OV-3 = system: SK-OV-3
SK-MEL-5 = system: SK-MEL-5
HOP-62 = system: HOP-62
OVCAR-4 = system: OVCAR-4
U-251 = system: U-251
SF-295 = system: SF-295
TK-10 = system: TK-10
NCI-H23 = system: NCI-H23
A498 = system: A498
MDA-MB-435 = system: MDA-MB-435
SN12C = system: SN12C
NCI/ADR-RES = system: NCI/ADR-RES
MDA-MB-231 = system: MDA-MB-231
RXF 393 = system: RXF 393
ACHN = system: ACHN
OVCAR-3 = system: OVCAR-3
A549 = system: A549
SNB-75 = system: SNB-75
UO-31 = system: UO-31

SMILES	GI50 (SK-OV-3)	GI50 (SK-MEL-5)	GI50 (HOP-62)	GI50 (OVCAR-4)	GI50 (U-251)	GI50 (SF-295)	GI50 (TK-10)	GI50 (NCI-H23)	GI50 (A498)	GI50 (MDA-MB-435)	GI50 (SN12C)	GI50 (NCI/ADR-RES)	GI50 (MDA-MB-231)	GI50 (RXF 393)	GI50 (ACHN)	GI50 (OVCAR-3)	GI50 (A549)	GI50 (SNB-75)	GI50 (UO-31)
COC1=CCC2=C(CCN(C(=O)C3CCC3)C2Cc2ccc(OC)c(O)c2)C1 (configuration not stated)	20.5 µM (inactive)	8.34 µM (inactive)	14.3 µM (inactive)	23 µM (inactive)	28.9 µM (inactive)	15.9 µM (inactive)	17.5 µM (inactive)	10 µM (inactive)	19.4 µM (inactive)	3.09 µM (inactive)	19.5 µM (inactive)	9.82 µM (inactive)	21.1 µM (inactive)	4.68 µM (inactive)	35.4 µM (inactive)	5.93 µM (inactive)	31.6 µM (inactive)	10.7 µM (inactive)	
CC1OC(O[C@H]2C3C=CO[C@@H](OC4OC(CO)C(O)C(O)C4O)C3[C@@]3(COC(=O)/C=C/c4ccc(O)cc4)O[C@@H]23)C(O)C(O)C1O (some centres not stated)	> 100 µM (inactive)	> 100 µM (inactive)	> 100 µM (inactive)	> 100 µM (inactive)	> 100 µM (inactive)	> 100 µM (inactive)	> 100 µM (inactive)	> 100 µM (inactive)	> 100 µM (inactive)	> 100 µM (inactive)	> 100 µM (inactive)	> 100 µM (inactive)	> 100 µM (inactive)	> 100 µM (inactive)	> 100 µM (inactive)	> 100 µM (inactive)	> 100 µM (inactive)	> 100 µM (inactive)	> 100 µM (inactive)
CC(=O)/C(=C/c1ccccc1F)C(=O)c1ccccc1	34.9 µM (inactive)	42.9 µM (inactive)	35.2 µM (inactive)	67.8 µM (inactive)	29.6 µM (inactive)	43.8 µM (inactive)	24.4 µM (inactive)	32 µM (inactive)	> 100 µM (inactive)	37.9 µM (inactive)	37.2 µM (inactive)	29.1 µM (inactive)	26.1 µM (inactive)	17.4 µM (inactive)	35.2 µM (inactive)	18.6 µM (inactive)	57 µM (inactive)	38.9 µM (inactive)	34.1 µM (inactive)
COc1cccc(C2ON=C(c3ccccc3)N2C23CC4CC(CC(C4)C2)C3)c1 (configuration not stated)	> 10 µM (inactive)	> 10 µM (inactive)	> 10 µM (inactive)	5.46 µM (inactive)	> 10 µM (inactive)	> 10 µM (inactive)	> 10 µM (inactive)	> 10 µM (inactive)	> 10 µM (inactive)	> 10 µM (inactive)	> 10 µM (inactive)	> 10 µM (inactive)	> 10 µM (inactive)	> 10 µM (inactive)	> 10 µM (inactive)	9.04 µM (inactive)	> 10 µM (inactive)	8.91 µM (inactive)	
COc1ccc(C(Nc2ncccn2)c2cc3c(cc2O)OCO3)cc1 (configuration not stated)	22.1 µM (inactive)	20.4 µM (inactive)	22.4 µM (inactive)	42.8 µM (inactive)	15.4 µM (inactive)	65.8 µM (inactive)	18.6 µM (inactive)	12.7 µM (inactive)	46.5 µM (inactive)	19.9 µM (inactive)	17.4 µM (inactive)	30.8 µM (inactive)	21.3 µM (inactive)	17.9 µM (inactive)	41.8 µM (inactive)	17.3 µM (inactive)	32.2 µM (inactive)	10.2 µM (inactive)	17.1 µM (inactive)
CCOC(=O)CO/N=C1/C(=C2/C(=O)Nc3ccccc32)Nc2ccccc21	13.6 µM (inactive)	49.5 µM (inactive)	8.3 µM (inactive)	3.24 µM (inactive)	6.78 µM (inactive)	33.3 µM (inactive)	86.3 µM (inactive)	17 µM (inactive)	15.1 µM (inactive)	> 100 µM (inactive)	31.3 µM (inactive)	> 100 µM (inactive)	7.4 µM (inactive)	7.82 µM (inactive)	67 µM (inactive)	12.4 µM (inactive)	24.5 µM (inactive)	3.39 µM (inactive)	86.7 µM (inactive)
Cc1ccccc1/N=C/N(C)C	> 100 µM (inactive)	17.2 µM (inactive)	58.6 µM (inactive)	37.5 µM (inactive)	39.4 µM (inactive)	39.5 µM (inactive)	54.6 µM (inactive)	19.2 µM (inactive)	91.6 µM (inactive)	42.1 µM (inactive)	66.5 µM (inactive)	> 100 µM (inactive)	39 µM (inactive)	50.4 µM (inactive)	41.8 µM (inactive)	17.7 µM (inactive)	39.6 µM (inactive)	44.9 µM (inactive)	74.6 µM (inactive)
COC(=O)C1OC(SCCN)C(O)C(O)C1O (configuration not stated)	> 100 µM (inactive)	> 100 µM (inactive)	> 100 µM (inactive)	> 100 µM (inactive)	> 100 µM (inactive)	> 100 µM (inactive)	> 100 µM (inactive)	> 100 µM (inactive)	> 100 µM (inactive)	> 100 µM (inactive)	> 100 µM (inactive)	> 100 µM (inactive)	> 100 µM (inactive)	> 100 µM (inactive)	> 100 µM (inactive)	> 100 µM (inactive)	> 100 µM (inactive)	> 100 µM (inactive)	
CCCCCCCCCCCCCCCCCC(=O)OCC(COC1OC(COP(=O)(O)O)C(O)C(O)C1O)OC(=O)CCCCCCCCCCCCCCCCC (configuration not stated)	8 µM (inactive)	9.1 µM (inactive)	8.26 µM (inactive)	7.41 µM (inactive)	6.71 µM (inactive)	4.02 µM (inactive)	10.4 µM (inactive)	7.78 µM (inactive)	6.03 µM (inactive)	9.71 µM (inactive)	7 µM (inactive)	9.33 µM (inactive)	3.04 µM (inactive)	8.95 µM (inactive)	6.41 µM (inactive)	8.87 µM (inactive)	7.46 µM (inactive)	4.63 µM (inactive)	
NC(=S)N/N=C1\CCCCC1C(O)(C(F)(F)Cl)C(F)(F)Cl (configuration not stated)	> 10 µM (inactive)	> 10 µM (inactive)	> 10 µM (inactive)	> 10 µM (inactive)	> 10 µM (inactive)	> 10 µM (inactive)	> 10 µM (inactive)	> 10 µM (inactive)	> 10 µM (inactive)	> 10 µM (inactive)	> 10 µM (inactive)	> 10 µM (inactive)	> 10 µM (inactive)	> 10 µM (inactive)	> 10 µM (inactive)	> 10 µM (inactive)	> 10 µM (inactive)	> 10 µM (inactive)	
COC(=O)c1ccc(/C=C/c2cc(O)ccc2O)cc1		3.82 µM (inactive)	27.2 µM (inactive)	4.5 µM (inactive)	2.51 µM (inactive)	13.1 µM (inactive)	8.43 µM (inactive)	4.39 µM (inactive)	5.15 µM (inactive)	3.21 µM (inactive)	2.38 µM (inactive)	2.08 µM (inactive)	2.74 µM (inactive)	2.25 µM (inactive)	3.19 µM (inactive)	1.18 µM (inactive)	19.8 µM (inactive)	15 µM (inactive)	1.47 µM (inactive)
c1ccc2c(c1)N[C@@H]1c3[nH]c4ccccc4c3CC[C@H]21	14.6 µM (inactive)	14.3 µM (inactive)	13.3 µM (inactive)		14.2 µM (inactive)	13.4 µM (inactive)	37 µM (inactive)	15.8 µM (inactive)	16.7 µM (inactive)	17.3 µM (inactive)	15.2 µM (inactive)	13.6 µM (inactive)	15.5 µM (inactive)	17.9 µM (inactive)	21.4 µM (inactive)	13.9 µM (inactive)	18.3 µM (inactive)	1.3 µM (inactive)	17.7 µM (inactive)
O=C(O)C1SCCS1	> 100 µM (inactive)	> 100 µM (inactive)	> 100 µM (inactive)	31.8 µM (inactive)	> 100 µM (inactive)	> 100 µM (inactive)	> 100 µM (inactive)	> 100 µM (inactive)	> 100 µM (inactive)	> 100 µM (inactive)	> 100 µM (inactive)	> 100 µM (inactive)	> 100 µM (inactive)		> 100 µM (inactive)	> 100 µM (inactive)	> 100 µM (inactive)	> 100 µM (inactive)	> 100 µM (inactive)
COc1ccc(/C=C/C2=NN(c3cccc(S(=O)(=O)O)c3)C3(C2)SCC(=O)N3c2nc3ccccc3s2)cc1 (configuration not stated)		58.9 µM (inactive)		53.1 µM (inactive)	46.2 µM (inactive)		86.3 µM (inactive)	40.1 µM (inactive)	57 µM (inactive)	62.4 µM (inactive)	> 100 µM (inactive)	59 µM (inactive)	67 µM (inactive)	> 100 µM (inactive)	69 µM (inactive)		90.4 µM (inactive)	> 100 µM (inactive)	51.1 µM (inactive)
CCN(CCCl)c1cc(CN(C)C)cc(NC(=O)c2ccc(C(=O)Nc3cccc(CN(C)C)c3)cc2)c1	1.91 µM (inactive)	0.213 µM (active)	0.326 µM (active)	0.607 µM (active)	0.225 µM (active)	1.36 µM (inactive)	3.73 µM (inactive)	1.54 µM (inactive)	2.65 µM (inactive)	0.238 µM (active)	0.357 µM (active)	> 100 µM (inactive)	28.1 µM (inactive)	0.247 µM (active)	2.94 µM (inactive)		2.2 µM (inactive)	0.695 µM (active)	27.7 µM (inactive)
